Results taken from ChEMBL document CHEMBL4616632, “Discovery of Cyclic Boronic Acid QPX7728, an Ultrabroad-Spectrum Inhibitor of Serine and Metallo-β-lactamases” (J Med Chem, 2020).
pIC50, pKi: −log10 of the molar value.

How the values were obtained:
Klebsiella pneumoniae [1] = assay: Potentiation of cefepime-induced antibacterial activity against carbapenem-resistant Klebsiella pneumoniae assessed as cefepime MIC90 at 8 ug/ml by broth microdilution method (Rvb > 32 ug/ml); format: functional
Enterobacteriaceae [2] = assay: Potentiation of meropenem-induced antibacterial activity against carbapenem-resistant Enterobacteriaceae assessed as meropenem MIC90 at 8 ug/ml by broth microdilution method (reference value: 16 ug/ml); format: functional
Chymase = Chymase (Homo sapiens, UniProt P23946); assay: Inhibition of mammalian chymase (unknown origin) using Suc-AAPF-AMC as substrate preincubated for 10 mins followed by substrate addition measured after 30 mins
Chymase, sequence (P23946 whole entry, the tested form may be a part): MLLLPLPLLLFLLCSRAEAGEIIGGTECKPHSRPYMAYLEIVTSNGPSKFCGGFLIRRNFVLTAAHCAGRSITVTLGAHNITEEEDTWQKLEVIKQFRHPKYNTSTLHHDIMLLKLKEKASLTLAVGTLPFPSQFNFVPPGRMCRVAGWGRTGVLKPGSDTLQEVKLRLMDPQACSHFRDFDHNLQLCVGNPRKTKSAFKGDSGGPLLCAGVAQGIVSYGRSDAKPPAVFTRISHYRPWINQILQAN

[3] = AUC in rat at 100 mg/kg, iv administered as infusion for 0.5 hrs by HPLC/MS analysis; format: ADME, organism-based; details: in vivo
Klebsiella pneumoniae [4] = assay: (§1) Potentiation of meropenem-induced bacteriostatic activity against carbapenem-resistant Klebsiella pneumoniae KP1244 harboring KPC-3, SHV-11, and SHV-12 infected in Swiss-Webster mouse model of neutropenic thigh infection assessed as log change in bacterial count in thigh at 10 mg/kg, ip administered at 2 hrs interval for 24 hrs starting from 2 hr post infection and measured post last dose (reference value: 0.62 log10CFU); format: functional
[5] = biological target: Urokinase-type plasminogen activator (Homo sapiens, UniProt P00749); assay: Inhibition of mammalian urokinase (unknown origin) using NGK-pNA as substrate preincubated for 10 mins followed by substrate addition measured after 30 mins
[6] = AUC in rat at 1000 mg/kg, po administered via gavage by HPLC/MS analysis; format: ADME, organism-based; details: in vivo
Acinetobacter baumannii [7] = assay: Potentiation of cefepime-induced antibacterial activity against carbapenem-resistant Acinetobacter baumannii assessed as cefepime MIC90 at 8 ug/ml by broth microdilution method (Rvb > 32 ug/ml); format: functional
Klebsiella pneumoniae [8] = assay: Inhibition of Klebsiella pneumoniae KP1081 NDM-1 assessed as minimum concentration of compound required to reduce the MIC of biapenem to 1 ug/ml
Enterobacteriaceae [9] = assay: Potentiation of ceftolozane-induced antibacterial activity against carbapenem-resistant Enterobacteriaceae assessed as ceftolozane MIC90 at 8 ug/ml by broth microdilution method (Rvb > 32 ug/ml); format: functional
Escherichia coli [10] = assay: Inhibition of Escherichia coli EC302 TEM-10 assessed as minimum concentration of compound needed to reduce the MIC of aztreonam to 4 ug/ml
[11] = Inhibition of mammalian elastase (unknown origin) using Suc-AAPA-pNA as substrate preincubated for 10 mins followed by substrate addition measured after 30 mins; set-up: species or system Homo sapiens
[12] = Inhibition of recombinant Escherichia coli AmpC using nitrocefin as substrate preincubated for 10 mins followed by substrate addition measured every 10 secs for 10 mins by spectrophotometrically analysis
Klebsiella pneumoniae [13] = assay: as §1, with “at 25” for “at 10”; format: functional
Pseudomonas aeruginosa [14] = assay: Inhibition of Pseudomonas aeruginosa PAM 2035 AmpC assessed as minimum concentration of compound needed to reduce the MIC of aztreonam to 4 ug/ml
[15] = Oral bioavailability in rat at 300 mg/kg administered via gavage by HPLC/MS analysis; format: ADME, organism-based; details: in vivo
[16] = Half life in rat at 100 mg/kg, po administered via gavage by HPLC/MS analysis; format: ADME, organism-based; details: in vivo
Klebsiella pneumoniae [17] = assay: Inhibition of Klebsiella pneumoniae KP1160 IMP-26 assessed as minimum concentration of compound needed to reduce the MIC of meropenem to 1 ug/ml
[18] = Cmax in rat at 300 mg/kg, iv administered as infusion for 0.5 hrs by HPLC/MS analysis; format: ADME, organism-based; set-up: dose 300 mg/kg, route intravenous; details: in vivo
[19] = biological target: Class A carbapenemase KPC-2 (Escherichia coli, UniProt A8DS27); assay: Inhibition of recombinant Escherichia coli KPC-2 using nitrocefin as substrate preincubated for 10 mins followed by substrate addition and measured every 10 secs for 10 mins by spectrophotometric analysis
Class A carbapenemase KPC-2, sequence (A8DS27 whole entry): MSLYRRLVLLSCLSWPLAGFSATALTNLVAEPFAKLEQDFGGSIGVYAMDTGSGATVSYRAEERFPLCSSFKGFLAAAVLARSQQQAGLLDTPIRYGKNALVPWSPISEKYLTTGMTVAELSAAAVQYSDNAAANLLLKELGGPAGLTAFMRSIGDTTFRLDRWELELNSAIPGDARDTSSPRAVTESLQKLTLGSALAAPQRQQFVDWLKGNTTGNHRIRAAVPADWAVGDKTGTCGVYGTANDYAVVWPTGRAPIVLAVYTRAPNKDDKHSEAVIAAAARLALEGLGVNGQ

[20] = Cmax in rat at 30 mg/kg, po administered via gavage by HPLC/MS analysis; format: ADME, organism-based; set-up: dose 30 mg/kg, route oral; details: in vivo
Cathepsin G = Cathepsin G (Homo sapiens, UniProt P08311); assay: Inhibition of mammalian cathepsin G (unknown origin) using Suc-AAPF-AMC as substrate preincubated for 10 mins followed by substrate addition measured after 30 mins
Cathepsin G, sequence (P08311 whole entry): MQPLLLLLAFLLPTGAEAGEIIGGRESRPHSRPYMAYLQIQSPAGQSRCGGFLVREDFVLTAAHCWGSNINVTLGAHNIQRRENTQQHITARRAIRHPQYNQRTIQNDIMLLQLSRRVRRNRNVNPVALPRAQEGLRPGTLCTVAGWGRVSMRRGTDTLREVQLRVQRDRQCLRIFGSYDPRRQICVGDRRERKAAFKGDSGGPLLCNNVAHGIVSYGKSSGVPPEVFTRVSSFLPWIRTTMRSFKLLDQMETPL

Klebsiella pneumoniae [21] = assay: Potentiation of cefepime-induced antibacterial activity against carbapenem-resistant Klebsiella pneumoniae assessed as cefepime MIC50 at 8 ug/ml by broth microdilution method (reference value: 32 ug/ml); format: functional
Klebsiella pneumoniae [22] = assay: as §1, with “at 50” for “at 10”; format: functional
Escherichia coli [23] = assay: Inhibition of Escherichia coli KP308 SHV-5 assessed as minimum concentration of compound required to reduce the MIC of aztreonam to 4 ug/ml
[24] = Lipophilicity, log D of the compound at pH 7.4; format: physicochemical; details: buffer
Enterobacterales [25] = assay: Potentiation of ceftolozane-induced antibacterial activity against Enterobacterales assessed as ceftolozane MIC50 at 8 ug/ml by broth microdilution method (reference value: 32 ug/ml); format: functional
Acinetobacter baumannii [26] = assay: Potentiation of meropenem-induced antibacterial activity against carbapenem-resistant Acinetobacter baumannii assessed as meropenem MIC50 at 8 ug/ml by broth microdilution method (Rvb > 32 ug/ml); format: functional
[27] = Half life in rat at 1000 mg/kg, po administered via gavage by HPLC/MS analysis; format: ADME, organism-based; details: in vivo
Pseudomonas aeruginosa [28] = assay: Potentiation of ceftolozane-induced antibacterial activity against Pseudomonas aeruginosa assessed as ceftolozane MIC90 at 8 ug/ml by broth microdilution method (reference value: 4 ug/ml); format: functional
[29] = Clearance in rat at 300 mg/kg, po administered via gavage by HPLC/MS analysis; format: ADME, organism-based; details: in vivo
Klebsiella pneumoniae [30] = assay: Potentiation of meropenem-induced antibacterial activity in Klebsiella pneumoniae KP1244 by measuring meropenem MIC at 8 ug/ml by broth microdilution method (Rvb >64 ug/ml); format: functional
Neutrophil elastase = Neutrophil elastase (Homo sapiens, UniProt P08246); assay: Inhibition of mammalian neutrophil elastase (unknown origin) using MeOSuc-AAVP-AMC as substrate preincubated for 10 mins followed by substrate addition measured after 30 mins
Neutrophil elastase, sequence (P08246 whole entry): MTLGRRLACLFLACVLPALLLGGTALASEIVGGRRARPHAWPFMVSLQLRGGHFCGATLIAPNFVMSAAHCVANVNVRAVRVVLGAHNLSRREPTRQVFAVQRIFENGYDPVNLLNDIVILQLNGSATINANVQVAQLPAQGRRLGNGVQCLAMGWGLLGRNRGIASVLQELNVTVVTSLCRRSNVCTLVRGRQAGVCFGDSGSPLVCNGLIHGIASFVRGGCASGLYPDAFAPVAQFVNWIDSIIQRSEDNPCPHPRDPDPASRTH

[31] = Cmax in rat at 1000 mg/kg, po administered via gavage by HPLC/MS analysis; format: ADME, organism-based; set-up: dose 1000 mg/kg, route oral; details: in vivo
[32] = biological target: Beta-lactamase (Klebsiella pneumoniae) (UniProt Q93LQ9); assay: Inhibition of Klebsiella pneumoniae KP1004 KPC-2 assessed as minimum concentration of compound needed to reduce the MIC of aztreonam to 4 ug/ml
Beta-lactamase (Klebsiella pneumoniae), sequence (Q93LQ9 as listed by the source): as the sequence (A8DS27 whole entry) above

Enterobacterales [33] = assay: Potentiation of ceftolozane-induced antibacterial activity against Enterobacterales assessed as ceftolozane MIC90 at 8 ug/ml by broth microdilution method (Rvb > 32 ug/ml); format: functional
[34] = Oral bioavailability in rat at 30 mg/kg in fasted state by HPLC/MS analysis; format: ADME, organism-based; details: in vivo
[35] = Inhibition of recombinant Escherichia coli IMP-1 using imipenem as substrate preincubated for 10 mins followed by substrate addition measured every 30 secs for 30 mins by spectrophotometrically analysis

O=C(O)c1c(F)ccc2c1OB(O)[C@@H]1C[C@H]21 [XERUBORBACTAM]
MIC90 (Klebsiella pneumoniae [1]): 0.25 µg/mL | MIC90 (Enterobacteriaceae [2]): 0.25 µg/mL | pIC50 (Chymase): < 3.00 | AUC at 0.5 h [3]: 221 µg·h/mL | Activity (Klebsiella pneumoniae [4]): -1.66 log10CFU | pIC50 [5]: < 3.00 | AUC [6]: 504 µg·h/mL | MIC90 (Acinetobacter baumannii [7]): 32 µg/mL | MEC (Klebsiella pneumoniae [8]): 0.6 µg/mL | MIC90 (Enterobacteriaceae [9]): 1 µg/mL | MEC (Escherichia coli [10]): 0.16 µg/mL | pIC50 [11]: 4.00 | pKi [12]: 8.07 | Activity (Klebsiella pneumoniae [13]): -1.15 log10CFU | MEC (Pseudomonas aeruginosa [14]): 5 µg/mL | bioavailability [15]: 28% | half-life [16]: 3.23 h | MEC (Klebsiella pneumoniae [17]): 2.5 µg/mL | Cmax [18]: 544 µg/mL | pKi [19]: 8.72 | Cmax [20]: 8.6 µg/mL | pIC50 (Cathepsin G): 3.18 | MIC50 (Klebsiella pneumoniae [21]): ≤ 0.06 µg/mL | Activity (Klebsiella pneumoniae [22]): -2.26 log10CFU | MEC (Escherichia coli [23]): 0.3 µg/mL | logD [24]: -2.85 | MIC50 (Enterobacterales [25]): 0.125 µg/mL | MIC50 (Acinetobacter baumannii [26]): 0.5 µg/mL | half-life [27]: 4 h | MIC90 (Pseudomonas aeruginosa [28]): 1 µg/mL | CL/F [29]: 28.5 mL/min/kg | MIC (Klebsiella pneumoniae [30]): 0.25 µg/mL | pIC50 (Neutrophil elastase): 3.88 | Cmax [31]: 90.4 µg/mL | MEC [32]: 0.3 µg/mL | MIC90 (Enterobacterales [33]): 8 µg/mL | bioavailability [34]: 43% | pKi [35]: 6.66
